Measurements: US20260256923A1, “NEW RECRUITMENT ELEMENT OF UBIQUITIN LIGASE AND USE THEREOF” (SHENZHEN LINGGENE BIOTECH CO., LTD., priority 2023, published 2026)

Legend:
HeLa cells = test: Cell penetration and intracellular colocalization, confocal laser microscope; type: cell-based; details: 500 nM Cy5-labeled, 6 h
Description: HeLa cells were incubated with 500 nM Cy5-labeled CRO or AS1411 for 6 h. After the incubation was completed, immunofluorescence staining was performed on NCL and MDM2, and 4′,6-diamidino-2-phenylindole (DAPI) was used to stain nuclei. The cell penetration of the CRO or AS1411 and the intracellular colocalization of the CRO or AS1411 with NCL and MDM2 were observed under a confocal laser microscope.
HeLa cells were transfected with si-NC or si-NCL and subsequently incubated with 500 nM Cy5-labeled AS1411 for 6 h. After the incubation was completed, immunofluorescence staining was performed on MDM2, and DAPI was used to stain nuclei. The intracellular colocalization of AS1411 with MDM2 was observed by a confocal laser microscope.

MDM2 [1] = target: T1, MDM2 (Homo sapiens, UniProt Q00987); test: Biotin-oligonucleotide pull-down with recombinant proteins (MDM2); type: binding; design: purchased R&D Systems (MDM2); ACROBiosystems (NCL) E3-202-050 (MDM2); NUL-H5253 (NCL); details: 400 nM 5′-biotin label, 6 μg/mL NCL + 6 μg/mL MDM2
Description: 6 μg/mL recombinant human NCL and 6 μg/mL recombinant human MDM2 were mixed well and incubated at 4° C. for 7 h. Subsequently, 400 nM CRO, AS1411, or iSN04 labeled by biotin at the 5′ end was added, and the mixture was incubated at 4° C. for 6 h. Streptavidin agarose gel beads (purchased from cytiva, Cat. No.: 17511301) were added, and the mixture was further incubated at 4° C. overnight. The gel beads were washed 4 times with a TBST buffer, and an SDS-PAGE protein loading buffer (purchased from Beyotime, Cat. No.: P0015) was added. The mixture was heated to 100° C. and held for 10 min. After centrifugation, the supernatant was collected. The pull-down product was then detected by western blot assay.
Target sequence in this assay (P19338 whole entry partner): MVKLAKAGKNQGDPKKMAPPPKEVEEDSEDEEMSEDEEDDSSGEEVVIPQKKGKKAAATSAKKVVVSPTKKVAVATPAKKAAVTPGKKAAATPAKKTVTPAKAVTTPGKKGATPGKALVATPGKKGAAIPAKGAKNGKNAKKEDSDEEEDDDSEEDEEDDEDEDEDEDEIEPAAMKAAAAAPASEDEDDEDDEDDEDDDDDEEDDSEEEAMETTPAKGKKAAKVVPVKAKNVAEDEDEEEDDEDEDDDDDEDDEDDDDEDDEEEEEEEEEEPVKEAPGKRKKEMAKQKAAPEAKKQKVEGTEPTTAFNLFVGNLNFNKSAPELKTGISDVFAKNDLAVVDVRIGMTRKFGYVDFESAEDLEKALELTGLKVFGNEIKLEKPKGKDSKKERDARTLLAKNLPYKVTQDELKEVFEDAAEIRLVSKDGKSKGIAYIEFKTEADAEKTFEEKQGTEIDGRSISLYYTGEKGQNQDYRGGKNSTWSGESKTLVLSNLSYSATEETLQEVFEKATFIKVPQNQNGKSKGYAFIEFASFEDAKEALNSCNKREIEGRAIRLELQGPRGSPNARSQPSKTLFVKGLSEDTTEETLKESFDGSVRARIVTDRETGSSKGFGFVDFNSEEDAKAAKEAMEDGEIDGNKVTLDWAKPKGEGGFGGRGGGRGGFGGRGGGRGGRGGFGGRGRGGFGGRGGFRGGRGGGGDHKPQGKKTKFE
Target sequence in this assay (Q00987 whole entry): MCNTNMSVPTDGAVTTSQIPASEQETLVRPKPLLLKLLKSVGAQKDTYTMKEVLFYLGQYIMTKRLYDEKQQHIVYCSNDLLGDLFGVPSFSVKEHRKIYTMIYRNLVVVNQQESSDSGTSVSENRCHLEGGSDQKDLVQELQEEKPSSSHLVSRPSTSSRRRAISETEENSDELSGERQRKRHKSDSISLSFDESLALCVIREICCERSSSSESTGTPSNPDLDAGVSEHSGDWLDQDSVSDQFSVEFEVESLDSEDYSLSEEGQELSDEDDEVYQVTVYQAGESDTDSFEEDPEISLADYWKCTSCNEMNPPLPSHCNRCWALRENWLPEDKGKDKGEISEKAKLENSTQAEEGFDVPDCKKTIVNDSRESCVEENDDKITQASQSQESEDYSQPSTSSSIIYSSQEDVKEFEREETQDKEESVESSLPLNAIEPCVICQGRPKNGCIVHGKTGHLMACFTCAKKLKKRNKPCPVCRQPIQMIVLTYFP

[2] = G4 structural characteristics, N-methyl mesoporphyrin IX (NMM) fluorescent probe; type: physicochemical; details: 1 μM NMM
Description: Both AS1411 and iSN04 are oligonucleotides specifically binding to NCL. The sequence of AS1411 is SEQ ID NO: 1, and the sequence of iSN04 is SEQ ID NO: 14. AS1411 contains a plurality of GGT motifs, and iSN04 contains one GGT motif. Whether AS1411 and iSN04 have stable G4 structural characteristics was determined. The experimental process was as follows: 5 μM NC (negative control, SEQ ID NO: 15), AS1411, or iSN04 was added to water, and the total volume was 100 μL. The mixture was heated at 95° C. for 7 min and then immediately incubated on ice for 3 min, followed by the addition of 2 μL of N-methyl mesoporphyrin IX (NMM) (purchased from MCE, Cat. No.: HY-133821) to make a final concentration of 1 μM. The resulting mixture was incubated at room temperature for 1 h in the dark. The fluorescence intensity was detected by a microplate reader, with an emission wavelength of 550-700 nm and an excitation wavelength of […].
Guanine-rich DNA sequences can form more distinct G4 structural characteristics in the presence of metal ions (usually sodium and potassium ions). 5 μM NC (negative control, SEQ ID NO: 15), AS1411, or iSN04 was added to a 100 mM K^+ solution, and the total volume was 100 μL. The mixture was well mixed, heated at 95° C. for 7 min, and then immediately incubated on ice for 3 min, followed by the addition of 2 μL of N-methyl mesoporphyrin IX (NMM) (purchased from MCE, Cat. No.: HY-133821) to make a final concentration of 1 μM. The resulting mixture was incubated at room temperature for 1 h in the dark. The fluorescence intensity was detected by a microplate reader, with an emission wavelength of 550-700 nm and an excitation wavelength of […].

MDM2 [3] = target: T1, MDM2; test: Pull-down with biotin-labeled AS1411 in HeLa cells transfected with si-NC or si-NCL; type: cell-based; design: HeLa cervical cancer cells were lysed with an IP lysis solution; endogenous in cells; host or cells: HeLa; details: 500 nM biotin-labeled, 6 h, si-NCL vs si-NC
Description: HeLa cells were transfected with negative control siRNA (si-NC, SEQ ID NO: 16) or NCL siRNA (si-NCL, SEQ ID NO: 17) and subsequently incubated with 500 nM biotin-labeled AS1411 for 6 h. After cell lysis, the supernatant was incubated with streptavidin-coated magnetic beads at 4° C. overnight. The bound AS1411 and its captured proteins on the magnetic beads were eluted with an eluent, and the pull-down products were detected by western blot assay.
Target sequence in this assay (P19338 2-710 partner limits assumed): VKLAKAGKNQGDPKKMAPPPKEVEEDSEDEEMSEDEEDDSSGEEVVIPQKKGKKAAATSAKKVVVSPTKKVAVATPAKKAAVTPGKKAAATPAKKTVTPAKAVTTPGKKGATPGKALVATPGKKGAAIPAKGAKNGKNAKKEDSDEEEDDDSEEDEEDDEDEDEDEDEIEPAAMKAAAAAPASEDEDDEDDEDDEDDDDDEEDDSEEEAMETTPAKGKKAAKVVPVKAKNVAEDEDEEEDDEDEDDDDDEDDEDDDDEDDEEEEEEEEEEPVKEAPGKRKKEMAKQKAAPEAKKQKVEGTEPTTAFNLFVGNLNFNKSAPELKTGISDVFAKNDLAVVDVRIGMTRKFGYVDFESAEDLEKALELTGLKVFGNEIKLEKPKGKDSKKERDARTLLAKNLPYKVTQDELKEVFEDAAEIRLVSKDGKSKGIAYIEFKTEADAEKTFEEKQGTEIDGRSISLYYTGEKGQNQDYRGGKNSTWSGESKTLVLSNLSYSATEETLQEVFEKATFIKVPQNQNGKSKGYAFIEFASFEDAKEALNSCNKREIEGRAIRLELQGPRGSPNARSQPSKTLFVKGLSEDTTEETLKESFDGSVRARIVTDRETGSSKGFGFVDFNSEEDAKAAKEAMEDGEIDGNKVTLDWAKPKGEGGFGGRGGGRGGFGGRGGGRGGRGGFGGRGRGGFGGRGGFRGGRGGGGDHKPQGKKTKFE
Target sequence in this assay (Q00987 whole entry): as the sequence (Q00987 whole entry) above

Q: Which cell penetration (HeLa cells) does the source give for “AS1411: DNA aptamer, GRO binding NCL, SEQ ID NO: 1: 5′-GGTGGTGGTGGTTGTGGTGGTGGTGG-3′” here?
A: can penetrate HeLa cells

Q: What about the “intracellular colocalization with NCL and MDM2” value (HeLa cells) of the same substance?
A: exhibits significant colocalization with both NCL and MDM2

Q: And the “cell penetration when NCL is silenced” value (HeLa cells; si-NCL)?
A: silencing NCL can block AS1411 from penetrating cells

Q: And the “intracellular colocalization with MDM2 when NCL is silenced” value (HeLa cells; si-NCL)?
A: no observed colocalization between AS1411 and MDM2

Q: And the “binding / recruitment of MDM2” value (MDM2 [1])?
A: recruits MDM2 in large amounts depending on its interaction with NCL

Q: What about the “G4 structural characteristics (fluorescence signal intensity)” value ([2]; 5 μM in 100 mM K+ solution) of the same substance?
A: over 10000

Q: What about the “G4 structural characteristics (fluorescence signal intensity)” value ([2]; 5 μM in water (no K+)) of the same substance?
A: over 4000

Q: And the “recruitment of MDM2 when NCL is silenced” value (MDM2 [3])?
A: silencing NCL can block the recruitment of MDM2 by AS1411
